Assay results as given in ChEMBL document CHEMBL6134868, “Novel Aryl Sulfonium Modification on Vancomycin to Tackle MRSA and VRE In Vitro and In Vivo through Dual Enhanced Cell-Wall and Membrane Inhibition” (J Med Chem, 2025).
The source made the active and inactive calls. The rule behind the calls is not given here.

What was measured:
[1] = MRT (infinity) in CD-1 mouse at 5 mg/kg, iv measured for 0.05 to 24 hrs by UPLC analysis; format: ADME, organism-based; conditions: in vivo, time 0.05-24 hrs
Enterococcus faecium [2] = test: Antibacterial activity against vancomycin-resistant Enterococcus faecium Efm-HS-08257 harboring VanM phenotype incubated for 16 to 24 hrs by broth microdilution assay; format: functional; conditions: time 16-24 hrs
[3] = Cytotoxicity against HK-2 cells assessed as cell viability at 50 mg/L incubated for 72 hrs by CCK8 assay relative to control; format: toxicity, cell-based; conditions: human, at 50 µg/mL, read-out: Activity
[4] = Volume of distribution at steady state in CD-1 mouse at 5 mg/kg, iv measured for 0.05 to 24 hrs by UPLC analysis; format: ADME, organism-based; conditions: in vivo, time 0.05-24 hrs, read-out: Vdss
[5] = Hemolytic activity against rat erythrocytes at 100 ug/ml incubated for 1 hr by absorbance based assay; format: toxicity, cell-based, Erythrocyte; conditions: erythrocyte, 1 h, dose 100 µg/ml
Staphylococcus aureus [6] = test: Dissipation of membrane potential in methicillin-resistant Staphylococcus aureus USA300 LAC at 1.3 to 170 ug/ml by DiSC3(5) dye based analysis; format: functional, organism-based; conditions: dose 1.3-170 µg/ml
Enterococcus faecium [7] = test: Antibacterial activity against vancomycin-resistant Enterococcus faecium Efm-HS-0649 harboring VanA phenotype incubated for 16 to 24 hrs by broth microdilution assay; format: functional; conditions: time 16-24 hrs
[8] = Cytotoxicity against mouse AML12 cells assessed as cell viability at 50 mg/L incubated for 72 hrs by CCK8 assay relative to control; format: toxicity, cell-based; conditions: at 50 µg/mL, read-out: Activity
[9] = AUC (infinity) in CD-1 mouse at 5 mg/kg, iv measured for 0.05 to 24 hrs by UPLC analysis; format: ADME, organism-based; conditions: in vivo, time 0.05-24 hrs
Enterococcus faecium [10] = test: Antibacterial activity against vancomycin-resistant Enterococcus faecium SC-2022-D2-059 harboring VanA phenotype incubated for 16 to 24 hrs by broth microdilution assay; format: functional; conditions: time 16-24 hrs
Acinetobacter baumannii [11] = test: Induction of outer membrane permeability in carbapenem-resistant Acinetobacter baumannii CRAB-1 clinical isolate by NPN dye based analysis; format: functional, organism-based; conditions: dose 1.33-170 µg/ml
Klebsiella pneumoniae = test: Antibacterial activity against Klebsiella pneumoniae KP-1 incubated for 16 to 24 hrs by broth microdilution assay; format: functional; conditions: time 16-24 hrs
[12] = Clearance in CD-1 mouse at 5 mg/kg, iv measured for 0.05 to 24 hrs by UPLC analysis; format: ADME, organism-based; conditions: in vivo, time 0.05-24 hrs
Enterococcus faecium [13] = test: Antibacterial activity against vancomycin-resistant Enterococcus faecium SC-2022-D2-059 harboring VanA phenotype infected in ICR mouse assessed as animal survival rate at 10 to 20 mg/kg, iv measured for 7 days relative to control; format: functional; conditions: dose 10-20 mg/kg, time 7 day
Staphylococcus aureus [14] = test: Antibacterial activity against methicillin-resistant Staphylococcus aureus USA300 LAC incubated for 16 to 24 hrs by broth microdilution assay; format: functional; conditions: time 16-24 hrs
Staphylococcus aureus [15] = test: Antibacterial activity against methicillin-resistant Staphylococcus aureus USA300 LAC infected in female BALB/c mouse assessed as animal survival rate at 7 mg/kg, iv measured for 7 days consecutively relative to control; format: functional; conditions: 168 h, time 7 day
Staphylococcus aureus [16] = test: Inhibition of peptidoglycan biosynthesis in methicillin-resistant Staphylococcus aureus USA300 LAC assessed as fold increase in accumulation of Park's nucleotide at 5 ug/ml incubated for 2 hrs by RP-HPLC analysis; format: functional; conditions: dose 5 µg/ml
Acinetobacter baumannii [17] = test: Antibacterial activity against Acinetobacter baumannii ATCC19606 incubated for 16 to 24 hrs by broth microdilution assay; format: functional; conditions: time 16-24 hrs
Enterococcus faecium [18] = test: Antibacterial activity against vancomycin-resistant Enterococcus faecium Efm-HS-vb02 harboring VanB phenotype incubated for 16 to 24 hrs by broth microdilution assay; format: functional; conditions: time 16-24 hrs
Bacteria = test: Antibacterial activity against Gram-positive bacteria incubated for 16 to 24 hrs by broth microdilution assay; format: functional; conditions: time 16-24 hrs
Enterococcus faecium [19] = test: Antibacterial activity against vancomycin-resistant Enterococcus faecium SC-2022-D2-059 harboring VanA phenotype infected in ICR mouse assessed as animal survival rate at 5 mg/kg, iv measured for 7 days relative to control; format: functional; conditions: SC-2022-D2-059, 168 h, time 7 day
Staphylococcus aureus [20] = test: Antibacterial activity against vancomycin-intermediate Staphylococcus aureus Mu50 incubated for 16 to 24 hrs by broth microdilution assay; format: functional; conditions: time 16-24 hrs
[21] = Half life in CD-1 mouse at 5 mg/kg, iv measured for 0.05 to 24 hrs by UPLC analysis; format: ADME, organism-based; conditions: in vivo, time 0.05-24 hrs
Escherichia coli = test: Antibacterial activity against Escherichia coli AB1157 incubated for 16 to 24 hrs by broth microdilution assay; format: functional; conditions: time 16-24 hrs
Staphylococcus aureus [22] = test: Induction of membrane permeability in methicillin-resistant Staphylococcus aureus USA300 LAC by fluorescence based analysis; format: functional, organism-based; conditions: dose 2.67-170 µg/ml
Pseudomonas aeruginosa = test: Antibacterial activity against Pseudomonas aeruginosa PAO1 incubated for 16 to 24 hrs by broth microdilution assay; format: functional; conditions: time 16-24 hrs
Enterococcus faecium [23] = test: Antibacterial activity against vancomycin-resistant Enterococcus faecium Efm-HS-vb01 harboring VanB phenotype incubated for 16 to 24 hrs by broth microdilution assay; format: functional; conditions: time 16-24 hrs
[24] = Acute toxicity in mouse assessed as animal suvival at 40 mg/kg, iv measured for 7 days; format: organism-based; conditions: in vivo, 168 h, time 7 day
[25] = Drug concentration in CD-1 mouse at 5 mg/kg, iv measured after 8 hrs; format: ADME, organism-based; conditions: in vivo, read-out: Drug uptake
[26] = AUClast in CD-1 mouse at 5 mg/kg, iv measured for 0.05 to 24 hrs by UPLC analysis; format: ADME, organism-based; conditions: in vivo, time 0.05-24 hrs
Acinetobacter baumannii [27] = test: Antibacterial activity against carbapenem-resistant Acinetobacter baumannii CRAB-1 clinical isolate incubated for 16 to 24 hrs by broth microdilution assay; format: functional; conditions: time 16-24 hrs

## CN[C@H](CC(C)C)C(=O)N[C@H]1C(=O)N[C@@H](CC(N)=O)C(=O)N[C@H]2C(=O)N[C@H]3C(=O)N[C@H](C(=O)N[C@H](C(=O)O)c4cc(O)c(CNCCC[S+](C)CC(O)COc5ccc(-c6ccc(C(F)(F)F)cc6)cc5)c(O)c4-c4cc3ccc4O)[C@H](O)c3ccc(c(Cl)c3)Oc3cc2cc(c3O[C@@H]2O[C@H](CO)[C@@H](O)[C@H](O)[C@H]2O[C@H]2C[C@](C)(N)[C@H](O)[C@H](C)O2)Oc2ccc(cc2Cl)[C@H]1O.O=C([O-])C(F)(F)F (stereo partly specified)
[1]
  MRT inf: 3.98 h
Enterococcus faecium [2]
  MIC: 2 µg/mL
[3]
  viability at 72 h, 50 mg/L: ~100%
[4]
  Vd: 0.566 L/kg
[5]
  Activity: Toxic
Staphylococcus aureus [6]
  Activity: Active
Enterococcus faecium [7]
  MIC: 0.5 µg/mL
[8]
  viability at 72 h, 50 mg/L: ~100%
[9]
  AUC(0-inf): 42000 ng·h/mL
Enterococcus faecium [10]
  MIC: 0.12 µg/mL
Acinetobacter baumannii [11]
  Activity: Active
Klebsiella pneumoniae
  MIC: 128 µg/mL
[12]
  clearance: 2.28 mL/min/kg
Enterococcus faecium [13]
  Survival: 100%
Staphylococcus aureus [14]
  MIC: 0.031 µg/mL
Staphylococcus aureus [15]
  survival at 7 mg/kg: 100%
Staphylococcus aureus [16]
  fold change (FC): <=3
Acinetobacter baumannii [17]
  MIC: 16 µg/mL
Enterococcus faecium [18]
  MIC: ≤ 0.063 µg/mL
Bacteria
  MIC: ≤ 0.063 µg/mL
Enterococcus faecium [19]
  survival at 5 mg/kg: 50%
Staphylococcus aureus [20]
  MIC: 0.125 µg/mL
[21]
  half-life: 3.57 h
Escherichia coli
  MIC: 8 µg/mL
Staphylococcus aureus [22]
  Activity: Dose-dependent-effect
Pseudomonas aeruginosa
  MIC: > 128 µg/mL
Enterococcus faecium [23]
  MIC: ≤ 0.063 µg/mL
[24]
  Activity: Non-toxic
[25]
  concentration at 8 h: ~700 ng/mL
[26]
  AUC(0-t): 41600 ng·h/mL
Acinetobacter baumannii [27]
  MIC: 32 µg/mL
